Source: patent EP3748362A1, “IN VITRO METHOD FOR DETECTING RENAL DISEASE” (Fundacion Instituto De Investigacion Sanitaria Fundacion …, priority 2019, dated 2020)

Experiments:
TRAF3 = test: Renal TRAF3 (western blot), unilateral ureteral obstruction in mice; assay type: in vivo; details: paricalcitol 750 ng/kg/day i.p., studied after 5 days
Protocol: (§1) All animal procedures were performed according to the guidelines of animal research in the European Community and with prior approval by the Ethics Committee of the Health Research of the IIS-Fundacion Jiménez Díaz. For in vivo studies, mice received a daily intraperitoneal injection of the VDRA Paricalcitol starting 48 hours prior to induction of kidney damage.
(§2) At the time of sacrifice, animals were anesthetized with 5 mg/kg xylazine (Rompun, Bayer AG) and 35 mg/kg ketamine (Ketolar, Pfizer) and the kidneys perfused in situ with cold saline before removal. Then, kidney portions were fixed in formalin buffer for immunohistochemistry studies or immediately frozen in liquid nitrogen for gene and protein studies.
Unilateral ureteral obstruction (UUO) was established in male C57BL/6 mice, under isoflurane-induced anesthesia. […]
(§3) For western blot, cell (25 µg/lane) and kidney (100-150 µg/lane) protein extracts were separated on 6%-12% polyacrylamide-SDS gels under reducing conditions. […] Autoradiographs were scanned using the Gel Doc™ EZ imager and analyzed with the Image Lab 3.0 software (BioRad).

NF-κB2 = NF-κB2 activation (p52 western blot) in MARSS gene silenced HK2 cells stimulated with TWEAK; assay type: cell-based, Human; details: paricalcitol 15 µmol/L 48 hours, TWEAK 100 ng/ml
Protocol: Human kidney proximal tubule epithelial cells (HK2 cell line, ATCC CRL-2190) were grown in RPMI 1640 with 10% fetal bovine serum (FBS), 1% glutamine, 100 U/ml penicillin, 100 µg/ml streptomycin, 5 µg/ml insulin-transferrin-selenite and 36 ng/ml hydrocortisone in 5% CO2 at 37° C. When cells reached 60 to 70% confluence, they were serum-depleted for 24 hours before the experiment.
Cells were stimulated with 100ng/ml recombinant human soluble TWEAK (Millipore) or p-200 µg/ml cresyl-sulfate (Raymond Vanholder and Griet Glorieux, University of Gent, Belgium). Concentrations of TWEAK and p-cresyl-sulfate were based on previously published dose-response experiments (Poveda et al. 2014; Sanz et al. 2008). […] DMSO, used as a solvent in some cases, had no effect on cell viability or on gene expression levels.
For western blot, cell (25 µg/lane) and kidney (100-150 µg/lane) protein extracts were separated on 6%-12% polyacrylamide-SDS gels under reducing conditions. […] Autoradiographs were scanned using the Gel Doc™ EZ imager and analyzed with the Image Lab 3.0 software (BioRad). […]

[1] = tested on: CCL2, CCL5 and IL6, CCL21A and CCL19; test: Proinflammatory gene expression (real time PCR) in TWEAK-stimulated PBMCs from healthy donors; assay type: cell-based, Human; details: 15 µmol/L paricalcitol 48 hours, TWEAK 100 ng/mL 6 hours
NF-κB1 = test: Canonical NF-κB1 activation, folic acid-induced renal injury in mice; assay type: in vivo; details: folic acid 300 mg/kg model; paricalcitol 25 µg/kg/day i.p.
Protocol: as §1, §2
Folic acid nephropathy is a classical model of kidney tubulointerstitial injury and inflammation that has been reported in humans. Mice received a single intraperitoneal injection of folic acid (Sigma) 300 mg/kg in 0.3 mol/l sodium bicarbonate or vehicle, and were sacrificed 48 hours later. […]
as §3

[2] = tested on: proinflammatory gene expression; test: Proinflammatory gene expression (real time PCR) in PBMCs from ESRD patients; assay type: in vivo, human; details: ESRD patients treated with paricalcitol vs untreated ESRD hemodialysis patients
Protocol: Intracellular protein and mRNA levels were measured in PBMCs from ESRD patients on hemodialysis. Inclusion criteria were as follows: age >45 years; male sex; informed consent; and absence of active inflammatory, infectious, or malignant diseases at the initiation or during the study. This study was approved by the IIS-Fundación Jiménez Diaz Ethics Committee. Patients were enrolled after providing written informed consent. PBMCs were separated from whole blood samples (30 ml into EDTA tubes) by a density gradient centrifugation method using Ficoll density gradient centrifugation. In total, 50x10^6 of PBMCs were obtained from 30 ml of whole blood and 6x10^6 PBMCs were used to isolate protein, RNA and nuclear/cytosolic protein levels using the NE-PER Reagent (Pierce) following the manufacturer's instructions.
Total RNA was isolated from cells and mouse kidney samples with Trizol (Invitrogen). The cDNA was synthesized using the High-Capacity cDNA Archive Kit (Applied Biosystems) using 2 µg total RNA primed with random hexamer primers. […] The mRNA copy numbers were calculated for each sample by the instrument software using Ct value. Results are expressed in copy numbers, calculated relative to unstimulated cells or control mice, after normalization against 18S.

SMILES: C[C@H](/C=C/[C@H](C)C(C)(C)O)[C@H]1CC[C@H]2/C(=C/C=C3C[C@@H](O)C[C@H](O)C3)CCC[C@]12C [paricalcitol]
- renal TRAF3 protein levels (TRAF3): restored renal TRAF3 protein levels to values of control mice
- TWEAK-induced NF-κB2 activation (NF-κB2): diminished
- TWEAK-induced upregulation of several proinflammatory genes, such as CCL2, CCL5 and IL6, as well as the NF-κB2-controlled genes CCL21A and CCL19 [1]: inhibited
- NF-κB1 activation, evaluated by IκB-α phosphorylation (NF-κB1): not modified
- proinflammatory gene expression levels [2]: significantly lower
